Series [1] has as its target T1, cGMP phosphodiesterase (cGMP-PDE) (Bos taurus, UniProt Q28156).
T1 construct: is a homogeneous enzyme obtained from bovine lung and purified by ion-exchange chromatography, gel filtration, and sucrose gradient centrifugation; from tissue; host or cells: bovine lung
The series can be described thus: Phosphodiesterase inhibition in vitro (cGMP-PDE). Conditions: bovine lung enzyme, 1 μM ^3 H-cGMP, pH 7.5, 25 minutes, room temperature. In kind it is biochemical.

A short description of series [2]: Compound toxicity assay: ^3 H-LEU HeLa cell translation (cytotoxicity). The class given is cell-based. The conditions noted are these: human; HeLa cells, translational activity, overnight incubation at 37° C.; read-out: Cytotoxicity, ^3 H-LEU Assay IC50. The procedure:
HeLa cells were treated with inhibitory compound for 24 hrs, after which levels of translational activity were assayed.
For assay of translational activity, HeLa cultures were grown to 80% confluency in 96 well microtiter plates, treated with appropriate concentrations of compound in 2% EMEM during an overnight incubation at 37° C., then rinsed with HBSS and overlaid with […] of 2% EMEM containing 8 uCi of tritiated leucine (^3 H-LEU, 141 Cu/mMol, Amersham Corp., Arlington Heights, Ill.). After a 1 hr incubation at 36.5° C., the cells were rinsed twice with phosphate buffered saline (PBS) and lysed in 400 ul/well of 1×PBS, 0.5% sodium dodecyl sulphate (SDS). After a 10 min incubation at 36.5° C., the contents of the well were transferred to a well in a Millititer HA microfiltration plate (Millipore Corp., Bedford, Mass.). The TCA insoluble proteins were precipitated onto the filter disc by a 10 min fixation with 5% TCA, followed by filtration over vacuum and three 10 minute rinses with 95% ethanol. The filters were dried at room temperature, cut from the milltitier plate and transferred to scintillation vials. TCA precipitable counts were assayed in 5 ml of Scintisol (Isolab, Akron, Ohio). The inhibitory activity of a compound was plotted versus the concentration and an IC50 value (that concentration of the compound required to decrease cellular translational activity by 50%) was derived for each compound.

In a further series the test system is HSV-2 (strain MS). The series can be described thus: HSV-β-Gal assay: transient expression of beta galactosidase in transfected HeLa cells superinfected with HSV-2 (in-vitro anti-HSV activity). In kind it is cell-based. The procedure: HeLa and Vero cell cultures were maintained in Eagles Minimal Essential Medium which was supplemented with glutamine, penecillin, streptomycin and 10% fetal calf serum (10% EMEM). Stock cultures of HSV-2 (strain MS available from ATCC VR-540) were grown in and harvested from Vero cells. Viral stocks were titered in Vero cells according to established procedures.
Plasmid pON 245^ori- contains the promoter of the HSV-1 thymidine kinase (tk) gene located immediately 5' of the E. coli lac Z gene. In this arrangement, the tk promoter controls transcription from the bacterial gene in transient expression assays. Additionally, an SV40 polyadenylation signal is present at the 3' end of the lac Z gene to allow for the efficient translation of the mRNA in eucaryotic cells. The expression of beta galactosidase in a transient assay using pON 245^ori- is dependent upon superinfection of the transfected cells with HSV. […] For example, see U.S. application Ser. No. 07/435,491 filed Sep. 5, 1989, the disclosure of which is incorporated herein by reference thereto.
HeLa cells were seeded into 96 well microtiter plates and allowed to grow to 80% confluency (approximately 35,000 cells/well). One half microgram of plasmid pON 245^ori- DNA was introduced into the cells of each well by the […] precipitation technique (Graham and Van der Eb, 1973). Four to six hours later, the cells were rinsed with Hank's Balanced Salt Soluton (HBSS), overlaid with 10% EMEM and incubated at 37° C. At 24 hrs post-trasnfection, cells were rinsed, overlaid with 10% EMEM again and re-incubated at 37° C. At 48 hrs post-transfection, cells were rinsed and overlaid with either EMEM containing 2% fetal calf serum (2% EMEM, 2% EMEM containing HSV-2 (strain MS, Multiplicity of Infection [moi]=5 pfu/cell) or 2% EMEM containing HSV-2 and the appropriate concentration of the compound to be tested. Twenty-four hrs later, the cells were harvested and assayed to beta galactosidase activity as described below.
All determinations of beta galactosidase activity were performed in 96 well microtiter plates. The intracellular level of beta galactosidase activity in each well was determined from cell lysates of the monolayer cultures. Aliquots were assayed by incubation in the presence of beta galactosidase substrate, 4-methylumbelliferyl-β-D-galactoside (MUG, 125 ug/ml, Sigma), for 2 hrs. The generation of fluorescent product was quantified on a Microfluor microfluorimeter (Dynatech) after addition of 0.1M glycine, pH 10.3 (Spaete and Mocarski, 1985). The inhibitory activity of a compound was plotted versus the concentration and an IC50 value (the concentration of compound required to reduce beta glactosidase expression by 50%) was obtained for each compound tested.

In series [3] the test system is spontaneously hypertensive rats (SHR). The series is described as follows: SHR analysis: fall in mean blood pressure in conscious spontaneously hypertensive rats. In kind it is in vivo, rat (SHR males). The conditions noted are these: for SHR MBP: 25 mpk (p.o.), Table IV. How it is done:
The ability of the antihypertensive compounds of the present invention to lower blood pressure can be assessed in vivo in conscious spontaneously hypertensive rats (SHR). SHR males are purchased from Taconic Farms, Germantown, N.Y. and are approximately 16-18 weeks old when anesthetized with ether. The caudal (ventral tail) artery is cannulated with polyethylene tubing (PE50) and blood pressure and heart rate are recorded as described by Baum, T. et al, J. Cardiovasc. Pharmacol. Vol. 5, pp. 665-667, (1983). Rats are placed into plastic cylindrical cages where they rapidly recover consciousness. Blood pressure and heart rate are allowed to stabilize for approximately 90 minutes prior to compound administration. Compounds are administered orally as solutions or suspensions in 0.4% aqueous methylcellulose vehicle via a feeding needle. The compound or 0.4% aqueous methylcellulose vehicle are given in a volume of 4 ml/kg to SHRs that had been fasted overnight. Activity is expressed as the fall in mean blood pressure (MBP) in millimeters of mercury (mm Hg). Compound-induced changes are compared with the changes in an appropriate placebo group.

The test system of series [4] is herpes virus. The conditions noted are these: added to lidocaine or lidocaine hydrochloride; cited from earlier work.
A further series deals with HSV-2. The conditions noted are these: cited from earlier work.
Another series concerns HSV. Conditions: cited from earlier work.
For another series, the system named is HSV-1. Conditions: cited from earlier work.
The subject of series [5] is herpes virus. The conditions noted are these: cited from earlier work.
Where [6] appears, read: Human alphaherpesvirus 2, HeLa cells, HSV-2 strain MS, moi 5 pfu/cell, 24 hrs, read-out: Anti-HSV Activity, HSV-β-Gal Assay IC50.
Setting [7] is: Human alphaherpesvirus 2, *Repeat, HeLa cells, HSV-2 strain MS, moi 5 pfu/cell, 24 hrs, read-out: Anti-HSV Activity, HSV-β-Gal Assay IC50 (repeat).

Molecules are shown by their SMILES. ≈ marks a conversion by molar mass, not a printed value. Like-named read-outs stand apart in the source and are kept apart here.

The molecule `CCCCCCn1c(OC)c(C(=O)OCC)c(=O)c2ccccc21` [Compound 17] showed a 50% inhibitory concentration (IC50) in series [1] of 14 µM.

Take `CCCCCCCn1c(OC)cc(=O)c2ccccc21` [Compound 5, 1-Heptyl-2-Methoxy-4(1H)-Quinolinone]: the IC50 in series [1] amounted to 5.9 µM; with HSV-2 (strain MS) (setting [6]), 9 µg/mL (≈ 32.9 µM). In addition, the CC50 in [2] came out at 45 µg/mL (≈ 165 µM).

Consider `COc1c(I)c(=O)c2ccccc2n1Cc1ccccc1` [Compound 13], for which the CC50 in series [2] was 27 µg/mL (≈ 69 µM). Further, the IC50 in the series with HSV-2 (strain MS) (setting [6]) was determined as 4 µg/mL (≈ 10.2 µM).

Regarding `COc1cc(=O)c2ccc(Cl)cc2n1C` [R H, R1 --CH3, R2 7-Cl, R3 --CH3], in series [1], the IC50 was more than 100 µM. In addition, the “SHR MBP” value in series [3] is -7 mm of Hg.

`CC(C)(CO)[C@@H](O)C(=O)NCCCO` [dexpanthenol]: the “enhancement of antiviral activity on addition to lidocaine or lidocaine hydrochloride” value in the series on herpes virus [4] is “significantly enhances the antiviral activity”.

For `CC(C)(CO)[C@@H](O)C(=O)NCCC(=O)O` [pantothenic acid], the “enhancement of antiviral activity on addition to lidocaine or lidocaine hydrochloride” value in the series on herpes virus [4] was “significantly enhances the antiviral activity”.

Turning to `Cn1c(OCCO)cc(=O)c2ccccc21` [Compound 14], in the series with HSV-2 (strain MS) (setting [6]), the IC50 is more than 25 µg/mL.

Turning to `COc1cc(=O)c2cc(C)c(C)cc2n1Cc1ccc(O)cc1` [Compound 11], the IC50 in the series on HSV-2 (strain MS) (setting [6]) was found to be 10 µg/mL (≈ 32.3 µM).

In the case of `COc1cc(=O)c2ccccc2n1Cc1ccccc1` [Compound 4, 1-Benzyl-2-Methoxy-4(1H)-Quinolinone], the IC50 in series [1] worked out at 2.6 µM; in the series with HSV-2 (strain MS) (setting [6]) it was 20 µg/mL (≈ 75.4 µM). Besides, in [2], the CC50 is 45 µg/mL (≈ 170 µM).

For `COc1cc(=O)c2cccc(C)c2n1C` [Compound 15], the “SHR MBP (fall in mean blood pressure)” value in [3] (25 mpk (P.O.), Table III) was 12 mm of Hg.

In [1], `COc1cc(=O)c2cc(OCc3ccccc3)ccc2n1Cc1ccccc1` [R H, R1 --CH3, R2 6-OCH2 Ph, R3 --CH2 Ph] yielded a half-inhibitory concentration (IC50) of more than 100 µM.

Turning to `COc1cc(=O)c2ccc(OC)c(C)c2o1` [Compound 10, 2,7-Dimethoxy-8-Methyl-1,4-Benzopyrone], the half-maximal inhibitory concentration (IC50) in series [1] worked out at 13 µM; with HSV-2 (strain MS) (setting [6]) it was 18 µg/mL (≈ 81.7 µM). Moreover, the CC50 in series [2] was more than 100 µg/mL.

As to `CCN(CC)CC(=O)Nc1c(C)cccc1C` [lidocaine, 2-(diethylamino)-N-(2,6-dimethylphenyl)acetamide], the “antiviral agent in cell culture against HSV-2” value with HSV-2 is listed as “antiviral agent”. The “treatment of HSV oral and genital lesions in humans” value with HSV is reported as “particularly effective”. The “antiviral agent in cell culture against HSV-1” value in the series on HSV-1 is “antiviral agent”. Besides, in the series on herpes virus [5], the “treatment of herpes virus infections of mammals” value was “able to treat herpes virus infections of mammals”.

Molecule `COc1ccc2c(c1)c(=O)cc(OC)n2Cc1ccccc1` [R H, R1 --CH3, R2 6-OCH3, R3 --CH2 Ph] yielded an IC50 in [1] of more than 100 µM.

On to `COc1cc(=O)c2cc(C)c(C)cc2n1Cc1ccc(O[Si](C)(C)C(C)(C)C)cc1` [Compound 8, 1-[4-(t-Butyl-Dimethylsilyloxy)] Benzyl-2-Methoxy-6,7-Dimethyl-4-(1H)-Quinolinone], for which the CC50 in series [2] was 25 µg/mL (≈ 59 µM). Besides, the IC50 with HSV-2 (strain MS) (setting [6]) is 2 µg/mL (≈ 4.72 µM).

With `CCCCCCn1c(OC)cc(=O)c2cc(C)ccc21` [Compound 16], in [1], 0.6 µM corresponded to half-maximal inhibition (IC50).

Turning to `CCCCCCn1c(OC)cc(=O)c2cccc(C)c21` [Compound 6, 1-Hexyl-2-Methoxy-8-Methyl-4(1H)-Quinolinone], the concentration for half-maximal inhibition (IC50) is more than 100 µM in [1]; 3 µg/mL (≈ 11 µM) in the series with HSV-2 (strain MS) (Human alphaherpesvirus 2, HeLa, 24 h, read-out: Anti-HSV Activity, HSV-β-Gal Assay IC50); 6 µg/mL (≈ 21.9 µM) in the series with HSV-2 (strain MS) (setting [7]). Also, in series [2], the CC50 worked out at 27 µg/mL (≈ 98.8 µM). In addition, the “SHR MBP” value in series [3] was -1 mm of Hg.

`CN(C)CCOc1cc(=O)c2ccccc2n1C` [Compound 1, 1-Methyl-2-(2-Dimethylaminoethoxy)-4(1H)-Quinolinone]: the IC50 in the series on HSV-2 (strain MS) (setting [6]) was more than 25 µg/mL.

As for `COc1cc(=O)c2cc(C)ccc2n1Cc1ccccc1` [Compound 3, 1-Benzyl-2-Methoxy-6-Methyl-4(1H)-Quinolinone], the IC50 came out at 6 µM in [1] and 13 µg/mL (≈ 46.5 µM) in the series with HSV-2 (strain MS) (setting [6]). For the same molecule, the CC50 in series [2] is 85 µg/mL (≈ 304 µM).

As for `CCCCCCn1c(OC)cc(=O)c2cccc(OC)c21` [Compound 7, 1-Hexyl-2,8-Dimethoxy-4(1H)-Quinolinone], the CC50 in [2] was 21 µg/mL (≈ 72.6 µM). Also, the IC50 in the series with HSV-2 (strain MS) (setting [7]) came to 8 µg/mL (≈ 27.6 µM); in the series on HSV-2 (strain MS) (setting [6]), 5 µg/mL (≈ 17.3 µM).

Regarding `COc1c(Cl)c(=O)c2cc(C)ccc2n1Cc1ccccc1` [Compound 12], in series [2], the CC50 amounted to 12 µg/mL (≈ 38.2 µM). Moreover, in the series with HSV-2 (strain MS) (setting [6]), the IC50 is 4 µg/mL (≈ 12.7 µM).

On to `CCOC(=O)c1c(OC)n(Cc2ccccc2)c2ccc(C)cc2c1=O` [Compound 9, 1-Benzyl-2-Methoxy-3-Carbethoxy-6-Methyl-4-(1H)-Quinolinone], for which the CC50 in series [2] came to 79 µg/mL (≈ 225 µM). The IC50 in the series on HSV-2 (strain MS) (setting [6]) amounted to 3 µg/mL (≈ 8.54 µM).

In [1], `COC(=O)Cn1c(OC)cc(=O)c2ccccc21` [R H, R1 --CH3, R2 --, R3 --CH2 CO2 CH3] gave an IC50 of more than 100 µM.

For orientation: IC50 means the midpoint of a concentration-inhibition curve.
